Data as given in patent US9718792B2, “Isoxazoline hydroxamic acid derivatives as LpxC inhibitors” (priority 2014, dated 2017).
≈ marks a conversion by molar mass, not a printed value.

Experiments:
P. aeruginosa LpxC = P. aeruginosa LpxC (Pseudomonas aeruginosa (strain ATCC 15692 / DSM 22644 / CIP 104116 / JCM 14847 / LMG 12228 / 1C / PRS 101 / PAO1), UniProt P47205); test: P. aeruginosa LpxC Inhibition Assay; format: biochemical; conditions: 1 nM P. aeruginosa LpxC, 2 μM substrate, LC-MS/MS; read-out: PA LpxC IC50
Procedure, shortened: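 Compounds pre-incubated 30 min at room temperature with 1 nM LpxC, then 2 μM UDP-3-O-(R-3-hydroxydecanoyl)-GlcNAc added; 20 min reaction in 50 mM sodium phosphate pH 7.5, 0.005% Triton X-100, quenched with HOAc. Product quantified by LC-MS/MS against calibration curve; IC50 from four-parameter logistic fit.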

P. aeruginosa PAO1 = test: Susceptibility Testing (MIC, broth microdilution); format: cell-based, Pseudomonas aeruginosa; conditions: Pseudomonas aeruginosa, PAO1, 20 h, P. aeruginosa PAO1, broth microdilution, 20 hours; read-out: PAO1 MIC
Procedure, shortened: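 Broth microdilution per CLSI in cation-adjusted Mueller-Hinton broth, inoculum ~5×10^5 CFU/mL, two-fold compound dilutions (1% DMSO final). Plates incubated 20 h in ambient air at 35° C. MIC is the lowest concentration preventing visible growth, confirmed by OD 600 nm reading.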

C[S+]([O-])c1ccc(-c2ccc(C3=NO[C@@H](C[C@](C)(C(=O)NO)S(C)(=O)=O)C3)cc2)cc1 (stereo partly drawn) [Compound 74, (2R)—N-hydroxy-2-methyl-3-((5R)-3-(4′-(methylsulfinyl)-[1,1′-biphenyl]-4-yl)-4,5-dihydroisoxazol-5-yl)-2-(methylsulfonyl) propanamide]
IC50 (P. aeruginosa LpxC): < 0.5 nM
MIC (P. aeruginosa PAO1): 0.71 µg/mL (≈ 1.53 µM)

COC(CO)c1ccc(-c2ccc(C3=NO[C@@H](C[C@](C)(C(=O)NO)S(C)(=O)=O)C3)cc2)cc1 (stereo partly drawn) [Compound 75, (2R)—N-hydroxy-3-((5R)-3-(4′-(2-hydroxy-1-methoxyethyl)-[1,1′-biphenyl]-4-yl)-4,5-dihydroisoxazol-5-yl)-2-methyl-2-(methylsulfonyl)propanamidepropanamide]
IC50 (P. aeruginosa LpxC): < 0.5 nM
MIC (P. aeruginosa PAO1): 0.5 µg/mL (≈ 1.05 µM)

C[C@@](C[C@H]1CC(c2ccc(-c3ccc(S(C)(=N)=O)cc3)cc2)=NO1)(C(=O)NO)S(C)(=O)=O (stereo partly drawn) [Compound 76, (2R)—N-hydroxy-2-methyl-3-((5R)-3-(4′-(S-methylsulfonimidoyl)-[1,1′-biphenyl]-4-yl)-4,5-dihydroisoxazol-5-yl)-2-(methylsulfonyl)propanamide]
IC50 (P. aeruginosa LpxC): < 0.5 nM
MIC (P. aeruginosa PAO1): 2 µg/mL (≈ 4.17 µM)

C[C@@](C[C@H]1CC(c2ccc(-c3ccc(-n4nccn4)cc3)cc2)=NO1)(C(=O)NO)S(C)(=O)=O [Compound 77, (R)-3-((R)-3-(4′-(2H-1,2,3-triazol-2-yl)-[1,1′-biphenyl]-4-yl)-4,5-dihydroisoxazol-5-yl)-N-hydroxy-2-methyl-2-(methylsulfonyl)propanamide]
IC50 (P. aeruginosa LpxC): < 0.5 nM
MIC (P. aeruginosa PAO1): 2 µg/mL (≈ 4.26 µM)

C[C@@](C[C@H]1CC(c2ccc(-c3ccncc3)cc2)=NO1)(C(=O)NO)S(C)(=O)=O [Compound 78, (R)-3-((R)-3-(4-(pyridin-4-yl)phenyl)-4,5-dihydroisoxazol-5-yl)-N-hydroxy-2-methyl-2-(methylsulfonyl)propanamide]
IC50 (P. aeruginosa LpxC): < 0.5 nM
MIC (P. aeruginosa PAO1): 1 µg/mL (≈ 2.48 µM)

COc1cc(F)c(-c2ccc(C3=NO[C@@H](C[C@](C)(C(=O)NO)S(C)(=O)=O)C3)cc2)c(F)c1 [Compound 79, (R)-3-((R)-3-(2′,6′-difluoro-4′-methoxy-[1,1′-biphenyl]-4-yl)-4,5-dihydroisoxazol-5-yl)-N-hydroxy-2-methyl-2-(methylsulfonyl)propanamide]
IC50 (P. aeruginosa LpxC): < 0.5 nM
MIC (P. aeruginosa PAO1): 0.35 µg/mL (≈ 0.747 µM)

CC(C)(O)c1cc(-c2ccc(C3=NO[C@@H](C[C@](C)(C(=O)NO)S(C)(=O)=O)C3)cc2)ccn1 [Compound 81, (R)—N-hydroxy-3-((R)-3-(4-(2-(2-hydroxypropan-2-yl)pyridin-4-yl)phenyl)-4,5-dihydroisoxazol-5-yl)-2-methyl-2-(methylsulfonyl)propanamide]
IC50 (P. aeruginosa LpxC): 2 nM
MIC (P. aeruginosa PAO1): 16 µg/mL (≈ 34.7 µM)

C[C@@](C[C@H]1CC(c2ccc(-c3ccncc3Cl)cc2)=NO1)(C(=O)NO)S(C)(=O)=O [Compound 82, (R)-3-((R)-3-(4-(3-chloropyridin-4-yl)phenyl)-4,5-dihydroisoxazol-5-yl)-N-hydroxy-2-methyl-2-(methylsulfonyl)propanamide]
IC50 (P. aeruginosa LpxC): < 0.5 nM
MIC (P. aeruginosa PAO1): 0.35 µg/mL (≈ 0.799 µM)

C[C@@](C[C@H]1CC(c2ccc(-c3cnccc3F)cc2)=NO1)(C(=O)NO)S(C)(=O)=O [Compound 83, (R)-3-((R)-3-(4-(4-fluoropyridin-3-yl)phenyl)-4,5-dihydroisoxazol-5-yl)-N-hydroxy-2-methyl-2-(methylsulfonyl)propanamide]
IC50 (P. aeruginosa LpxC): < 0.5 nM
MIC (P. aeruginosa PAO1): 1 µg/mL (≈ 2.37 µM)

CC(C)(O)c1ccc(-c2ccc(C3=NO[C@@H](C[C@](C)(C(=O)NO)S(C)(=O)=O)C3)cc2)cn1 [Compound 84, (R)—N-hydroxy-3-((R)-3-(4-(6-(2-hydroxypropan-2-yl)pyridin-3-yl)phenyl)-4,5-dihydroisoxazol-5-yl)-2-methyl-2-(methylsulfonyl)propanamide]
IC50 (P. aeruginosa LpxC): < 0.5 nM
MIC (P. aeruginosa PAO1): 1 µg/mL (≈ 2.17 µM)

Cc1cnccc1-c1ccc(C2=NO[C@@H](C[C@](C)(C(=O)NO)S(C)(=O)=O)C2)cc1 [Compound 85, (R)-3-((R)-3-(4-(3-methylpyridin-4-yl)phenyl)-4,5-dihydroisoxazol-5-yl)-N-hydroxy-2-methyl-2-(methylsulfonyl)propanamide]
IC50 (P. aeruginosa LpxC): < 0.5 nM
MIC (P. aeruginosa PAO1): 0.5 µg/mL (≈ 1.2 µM)

CO[C@@H](CO)Cc1ccc(-c2ccc(C3=NO[C@@H](C[C@](C)(C(=O)NO)S(C)(=O)=O)C3)cc2)cc1 [Compound 86, (R)—N-hydroxy-3-((R)-3-(4′-((R)-3-hydroxy-2-methoxypropyl)-[1,1′-biphenyl]-4-yl)-4,5-dihydroisoxazol-5-yl)-2-methyl-2-(methylsulfonyl)propanamide]
IC50 (P. aeruginosa LpxC): < 0.5 nM
MIC (P. aeruginosa PAO1): 0.35 µg/mL (≈ 0.713 µM)

Cc1cc(CO)ccc1-c1ccc(C2=NO[C@@H](C[C@](C)(C(=O)NO)S(C)(=O)=O)C2)cc1 [Compound 87, (R)—N-hydroxy-3-((R)-3-(4′-(hydroxymethyl)-2′-methyl-[1,1′-biphenyl]-4-yl)-4,5-dihydroisoxazol-5-yl)-2-methyl-2-(methylsulfonyl)propanamide]
IC50 (P. aeruginosa LpxC): < 0.5 nM
MIC (P. aeruginosa PAO1): 0.25 µg/mL (≈ 0.56 µM)

C[C@@H](O)Cc1cc(F)c(-c2ccc(C3=NO[C@@H](C[C@](C)(C(=O)NO)S(C)(=O)=O)C3)cc2)c(F)c1 [Compound 88, (R)-3-((R)-3-(2′,6′-difluoro-4′-((R)-2-hydroxypropyl)-[1,1′-biphenyl]-4-yl)-4,5-dihydroisoxazol-5-yl)-N-hydroxy-2-methyl-2-(methylsulfonyl) propanamide]
IC50 (P. aeruginosa LpxC): < 0.5 nM
MIC (P. aeruginosa PAO1): 0.25 µg/mL (≈ 0.503 µM)

C[C@@H](O)Cc1ccc(-c2ccc(C3=NO[C@@H](C[C@](C)(C(=O)NO)S(C)(=O)=O)C3)cc2)c(F)c1 [Compound 89, (R)-3-((R)-3-(2′-fluoro-4′-((R)-2-hydroxypropyl)-[1,1′-biphenyl]-4-yl)-4,5-dihydroisoxazol-5-yl)-N-hydroxy-2-methyl-2-(methylsulfonyl) propanamide]
IC50 (P. aeruginosa LpxC): < 0.5 nM
MIC (P. aeruginosa PAO1): 0.71 µg/mL (≈ 1.48 µM)

Cc1cc(C[C@@H](C)O)ccc1-c1ccc(C2=NO[C@@H](C[C@](C)(C(=O)NO)S(C)(=O)=O)C2)cc1 [Compound 90, (R)-3-((R)-3-(2′-methyl-4′-((R)-2-hydroxypropyl)-[1,1′-biphenyl]-4-yl)-4,5-dihydroisoxazol-5-yl)-N-hydroxy-2-methyl-2-(methylsulfonyl) propanamide]
IC50 (P. aeruginosa LpxC): < 0.5 nM
MIC (P. aeruginosa PAO1): 0.5 µg/mL (≈ 1.05 µM)

C[C@@](C[C@H]1CC(c2ccc(-c3ccsc3)cc2)=NO1)(C(=O)NO)S(C)(=O)=O [Compound 91, (R)—N-hydroxy-2-methyl-2-(methylsulfonyl)-3-((R)-3-(4-(thiophen-3-yl)phenyl)-4,5-dihydroisoxazol-5-yl)propanamide]
IC50 (P. aeruginosa LpxC): < 0.5 nM
MIC (P. aeruginosa PAO1): 0.125 µg/mL (≈ 0.306 µM)

C[C@@](C[C@H]1CC(c2ccc(-c3cnsc3)cc2)=NO1)(C(=O)NO)S(C)(=O)=O [Compound 92, (R)—N-hydroxy-3-((R)-3-(4-(isothiazol-4-yl)phenyl)-4,5-dihydroisoxazol-5-yl)-2-methyl-2-(methylsulfonyl)propanamide]
IC50 (P. aeruginosa LpxC): < 0.5 nM
MIC (P. aeruginosa PAO1): 0.35 µg/mL (≈ 0.855 µM)

C[C@@H](O)[C@@H](O)Cc1ccc(-c2ccc(C3=NO[C@@H](C[C@](C)(C(=O)NO)S(C)(=O)=O)C3)cc2)cc1 [Compound 93, (R)-3-((R)-3-(4′-((2S,3R)-2,3-dihydroxybutyl)-[1,1′-biphenyl]-4-yl)-4,5-dihydroisoxazol-5-yl)-N-hydroxy-2-methyl-2-(methylsulfonyl) propanamide]
IC50 (P. aeruginosa LpxC): < 0.5 nM
MIC (P. aeruginosa PAO1): 2 µg/mL (≈ 4.08 µM)

C[C@@](C[C@H]1CC(c2ccc(-c3ccc([C@H](O)CO)cc3)cc2)=NO1)(C(=O)NO)S(C)(=O)=O [Compound 94, (R)-3-((R)-3-(4′-((S)-1,2-dihydroxyethyl)-[1,1′-biphenyl]-4-yl)-4,5-dihydroisoxazol-5-yl)-N-hydroxy-2-methyl-2-(methylsulfonyl)propanamide]
IC50 (P. aeruginosa LpxC): < 0.5 nM
MIC (P. aeruginosa PAO1): 0.25 µg/mL (≈ 0.541 µM)

C[C@@](C[C@H]1CC(c2ccc(-c3ccc([C@@H](O)CO)cc3)cc2)=NO1)(C(=O)NO)S(C)(=O)=O [Compound 95, (R)-3-((R)-3-(4′-((R)-1,2-dihydroxyethyl)-[1,1′-biphenyl]-4-yl)-4,5-dihydroisoxazol-5-yl)-N-hydroxy-2-methyl-2-(methylsulfonyl)propanamide]
IC50 (P. aeruginosa LpxC): < 0.1 nM
MIC (P. aeruginosa PAO1): 0.25 µg/mL (≈ 0.541 µM)

C[C@@](C[C@H]1CC(c2ccc(-c3ccc(C(O)CCO)cc3)cc2)=NO1)(C(=O)NO)S(C)(=O)=O (stereo partly drawn) [Compound 96, (2R)-3-((5R)-3-(4′-(1,3-dihydroxypropyl)-[1,1′-biphenyl]-4-yl)-4,5-dihydroisoxazol-5-yl)-N-hydroxy-2-methyl-2-(methylsulfonyl)propanamide]
IC50 (P. aeruginosa LpxC): < 0.5 nM
MIC (P. aeruginosa PAO1): 0.5 µg/mL (≈ 1.05 µM)

C[C@@](C[C@H]1CC(c2ccc(C#CC3CCOCC3)cc2)=NO1)(C(=O)NO)S(C)(=O)=O [Compound 98, (R)—N-hydroxy-2-methyl-2-(methylsulfonyl)-3-((R)-3-(4-((tetrahydro-2H-pyran-4-yl)ethynyl)phenyl)-4,5-dihydroisoxazol-5-yl)propanamide]
IC50 (P. aeruginosa LpxC): 0.6 nM
MIC (P. aeruginosa PAO1): 2 µg/mL (≈ 4.6 µM)

C[C@@](C[C@H]1CC(c2ccc(-c3c(F)cncc3F)cc2)=NO1)(C(=O)NO)S(C)(=O)=O [Compound 100]
IC50 (P. aeruginosa LpxC): < 0.5 nM
MIC (P. aeruginosa PAO1): 0.25 µg/mL (≈ 0.569 µM)

CCc1ccc(C2=NO[C@@H](C[C@](C)(C(=O)NO)S(C)(=O)=O)C2)cc1F [Compound 101, (R)-3-((R)-3-(4-ethyl-3-fluorophenyl)-4,5-dihydroisoxazol-5-yl)-N-hydroxy-2-methyl-2-(methylsulfonyl)propanamide]
IC50 (P. aeruginosa LpxC): < 0.5 nM
MIC (P. aeruginosa PAO1): 0.35 µg/mL (≈ 0.94 µM)
